6 compounds from patent EP4389751A1, “HETEROCYCLIC COMPOUNDS AND USES THEREOF” (Kumquat Biosciences Inc., priority 2021, dated 2024) can be followed below.

One experiment addresses T1, K-Ras G12S (Homo sapiens, UniProt P01116, G12S).
T1 construct: made in house; host or cells: E. coli (e.g., BL21 (DE3))
Description: HTRF assay of the K-Ras / SOS1 interaction. The settings on record: IC50 (against K-Ras G12D) to IC50 (against K-Ras G12S). The experiment is classed as biochemical. In short, it runs like this: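 GST-K-Ras G12S with anti-GST-Eu donor and His-hSOS1 with anti-6His-XL665 acceptor in ~5 mM HEPES pH 7.4, ~150 mM NaCl, 1 mM DTT, 0.05% BSA, 0.0025% Igepal. Read after ~10 min or longer; IC50 from 665/620 nm ratio, duplicates at 10 µM down to 0.01 µM.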
In general terms: Time-resolved FRET reads energy transfer from a long-lived donor to a nearby acceptor.

For another experiment, the system named is GP2D cells. Put plainly: Cell proliferation assay (CellTiter-Glo), K-Ras G12D cells. The experiment is classed as cell-based. The settings on record: read-out: Inhibition of GP2D Cells (IC50). The protocol:
ASPC-1 (ATCC CRL-1682), Panc-10.05 (ATCC CRL-2547), A427, and GP2D (Sigma 95090714) cell lines comprise a G12D mutation and can be used to assess Ras cellular signaling in vitro, e.g., in response to the compounds herein. […] ASPC-1 culture medium is prepared with RPMI-1640 and 10% heat-inactivated FBS. Panc-10.05 culture medium is prepared with RPMI-1640, 10 Units/ml human recombinant insulin, and 10% FBS. A427 cell culture is prepared with RPMI-1640 and 10% heat-inactivated FBS. GP2D culture medium is prepared with DMEM with 2mM glutamine and 10% heat-inactivated FBS. A Cell Titer-Glo (CTG) luminescent based assay (Promega) is used to assess growth of the cells, as a measurement of the ability of the compounds herein to inhibit Ras signaling in the cells. The cells (e.g., 800 per well) are seeded in their respective culture medium in standard tissue culture-treated 384-well format plates (Falcon #08-772-116) or ultra-low attachment surface 384-well format plates (S-Bio # MS-9384UZ ). The day after plating, cells are treated with a dilution series (e.g., a 9 point 3-fold dilution series) of the compounds herein (e.g., approximately 40 µl final volume per well). Cell viability can be monitored (e.g., approximately 5 days later) according to the manufacturer's recommended instructions, where the CellTiter-Glo reagent is added (e.g., approximately 10 µl), vigorously mixed, covered, and placed on a plate shaker (e.g., approximately for 20 min) to ensure sufficient cell lysis prior to assessment of luminescent signal. The IC50 values are determined using the four parameter fit. The resulting IC50 value is a measurement of the ability of the compounds herein to reduce cell growth of Ras-driven cells (e.g., tumor cell lines) in vitro and/or in vivo.
For orientation: Cellular ATP, detected with luciferase, serves as a proxy for viable cell number.

pIC50: −log10 of the molar value. Read-outs that look alike come from different tables or passages of the source.

T1 sequence (P01116 1-188 isoform P01116-2 G12S): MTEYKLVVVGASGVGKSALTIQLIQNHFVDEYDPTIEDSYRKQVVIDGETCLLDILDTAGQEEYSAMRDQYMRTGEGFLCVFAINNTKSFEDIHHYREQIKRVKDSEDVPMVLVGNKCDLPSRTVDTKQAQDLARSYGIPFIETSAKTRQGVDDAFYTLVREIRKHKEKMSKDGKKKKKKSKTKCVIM

On to `Nc1nc2c(-c3c(Cl)cc4c(NCCN5CC6CCC(C5)N6C(=O)n5cncn5)nc(OC[C@@]56CCCN5C[C@H](F)C6)nc4c3F)ccc(F)c2s1` [Compound A168, (3-(2-((7-(2-amino-7-fluorobenzo[d]thiazol-4-yl)-6-chloro-8-fluoro-2-(((2R,7aS)-2-fluorotetrahydro-1H-pyrrolizin-7a(5H)-yl)methoxy)quinazolin-4-yl)amino)ethyl)-3,8-diazabicyclo[3.2.1]octan-8-yl)(1H-1,2,4-triazol-1-yl)methanone], for which the “Ratio of IC50 KRAS G12D vs. IC50 KRAS G12S” value (from here on “Ratio”) at K-Ras G12S is recorded as “A (A: indicates that the ratio of IC50 against KrasG12D vs. IC50 against KrasG12S is 1-fold or greater)”. The pIC50 (commonly −log10 of the IC50, conventionally taken in molar units) in the experiment on GP2D cells (GP2d) was 5.00 to 6.00.

Turning to `Nc1nc2c(-c3c(Cl)cc4c(NC5CCN(C(=O)n6cncn6)CC5)nc(OC[C@@]56CCCN5C[C@H](F)C6)nc4c3F)ccc(F)c2s1` [Compound A187, (4-((7-(2-amino-7-fluorobenzo[d]thiazol-4-yl)-6-chloro-8-fluoro-2-(((2R,7aS)-2-fluorotetrahydro-1H-pyrrolizin-7a(5H)-yl)methoxy)quinazolin-4-yl)amino)piperidin-1-yl)(1H-1,2,4-triazol-1-yl)methanone], the “Ratio” value at K-Ras G12S was “A (A: indicates that the ratio of IC50 against KrasG12D vs. IC50 against KrasG12S is 1-fold or greater)”. In the experiment on GP2D cells (GP2D cells (K-Ras G12D)), the pIC50 was 5.00 to 6.00.

`N#Cc1ccn(C(=O)N2C3CCC2CN(c2nc(OC[C@@]45CCCN4C[C@H](F)C5)nc4c(F)c(-c5ccc(F)c6sc(N)nc56)c(Cl)cc24)C3)c1` [Compound A188, 1-(3-(7-(2-amino-7-fluorobenzo[d]thiazol-4-yl)-6-chloro-8-fluoro-2-(((2R,7aS)-2-fluorotetrahydro-1H-pyrrolizin-7a(5H)-yl)methoxy)quinazolin-4-yl)-3,8-diazabicyclo[3.2. 1]octane-8-carbonyl)-1H-pyrrole-3-carbonitrile]: on K-Ras G12S, the “Ratio” value was “A (A: indicates that the ratio of IC50 against KrasG12D vs. IC50 against KrasG12S is 1-fold or greater)”. In addition, the pIC50 in the experiment with GP2D cells (GP2d) is at least 6.00.

For the compound `Nc1nc2c(-c3c(Cl)cc4c(NC5CCN(C(=O)n6cnc(F)c6)CC5)nc(OC[C@@]56CCCN5C[C@H](F)C6)nc4c3F)ccc(F)c2s1` [Compound A193, (4-((7-(2-amino-7-fluorobenzo[d]thiazol-4-yl)-6-chloro-8-fluoro-2-(((2R,7aS)-2-fluorotetrahydro-1H-pyrrolizin-7a(5H)-yl)methoxy)quinazolin-4-yl)amino)piperidin-1-yl)(4-fluoro-1H-imidazol-1-yl)methanone], the “Ratio” value at K-Ras G12S is reported as “A (A: indicates that the ratio of IC50 against KrasG12D vs. IC50 against KrasG12S is 1-fold or greater)”. Further, the pIC50 in the experiment with GP2D cells (GP2D cells (K-Ras G12D)) was 5.00 to 6.00.

As to `Cc1cnn(C(=O)N2CCN(c3nc(OC[C@@]45CCCN4C[C@H](F)C5)nc4c(F)c(-c5ccc(F)c6sc(N)nc56)c(Cl)cc34)CC(F)(F)C2)c1` [Compound A203, (4-(7-(2-amino-7-fluorobenzo[d]thiazol-4-yl)-6-chloro-8-fluoro-2-(((2R,7aS)-2-fluorotetrahydro-1H-pyrrolizin-7a(5H)-yl)methoxy)quinazolm-4-yl)-6,6-difluoro-1,4-diazepan-1-yl)(4-methyl-1H-pyrazol-1-yl)methanone], the “Ratio” value at K-Ras G12S is recorded as “A (A: indicates that the ratio of IC50 against KrasG12D vs. IC50 against KrasG12S is 1-fold or greater)”. In addition, the pIC50 with GP2D cells (GP2D cells (K-Ras G12D)) is 5.00 to 6.00.

For `N#Cc1c(N)sc2c(F)ccc(-c3ncc4c(N5CC6CCC(C5)N6C(=O)n5cncn5)nc(OC[C@@]56CCCN5C[C@H](F)C6)nc4c3F)c12` [Compound A206, 4-(4-(8-(1H-1,2,4-triazole-1-carbonyl)-3,8-diazabicyclo[3.2.1]octan-3-yl)-8-fluoro-2-(((2R,7aS)-2-fluorotetrahydro-1H-pyrrolizin-7a(5H)-yl)methoxy)pyrido[4,3-d]pyrimidin-7-yl)-2-amino-7-fluorobenzo[b]thiophene-3-carbonitrile], the “Ratio” value at K-Ras G12S is given as “A (A: indicates that the ratio of IC50 against KrasG12D vs. IC50 against KrasG12S is 1-fold or greater)”. For the same compound, the pIC50 in the experiment with GP2D cells (GP2D cells (K-Ras G12D)) is at least 6.00.
